Results published in patent US12226412B2, “Heteroaryl-ketone fused azadecalin glucocorticoid receptor modulators” (Corcept Therapeutics, Inc., priority 2012, dated 2025).
Where two headings read alike, the source gives them in different places.

Legend:
human recombinant GR = target: T1, human recombinant GR (Homo sapiens, UniProt P04150); assay: Human glucocorticoid receptor (GR) fluorescence polarisation (FP) binding assay
T1 construct: purchased PanVera P2812
T1 sequence (P04150 1-777): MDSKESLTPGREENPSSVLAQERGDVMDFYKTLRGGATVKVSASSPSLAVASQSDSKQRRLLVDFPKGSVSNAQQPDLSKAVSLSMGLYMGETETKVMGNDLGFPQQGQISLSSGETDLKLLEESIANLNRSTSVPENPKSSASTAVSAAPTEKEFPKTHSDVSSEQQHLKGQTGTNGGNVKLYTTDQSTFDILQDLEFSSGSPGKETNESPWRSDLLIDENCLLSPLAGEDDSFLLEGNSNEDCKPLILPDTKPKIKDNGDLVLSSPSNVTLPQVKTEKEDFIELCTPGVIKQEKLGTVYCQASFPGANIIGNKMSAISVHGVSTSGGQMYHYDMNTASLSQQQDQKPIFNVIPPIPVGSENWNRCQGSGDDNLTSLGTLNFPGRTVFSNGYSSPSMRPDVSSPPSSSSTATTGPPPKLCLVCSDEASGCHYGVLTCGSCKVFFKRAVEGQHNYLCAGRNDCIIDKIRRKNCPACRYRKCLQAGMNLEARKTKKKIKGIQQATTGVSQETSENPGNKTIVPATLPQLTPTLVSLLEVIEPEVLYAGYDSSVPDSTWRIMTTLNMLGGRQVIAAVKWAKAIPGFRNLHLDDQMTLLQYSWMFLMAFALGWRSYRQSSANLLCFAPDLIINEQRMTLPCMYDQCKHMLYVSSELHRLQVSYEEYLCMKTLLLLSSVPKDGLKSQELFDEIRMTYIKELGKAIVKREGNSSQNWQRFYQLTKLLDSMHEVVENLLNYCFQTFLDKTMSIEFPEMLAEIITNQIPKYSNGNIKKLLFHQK
Summary of the method: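 Competition fluorescence polarisation: 0.5 nM GS Red labelled glucocorticoid and 1 nM recombinant human GR with 8-point half-log compound series, 1% DMSO, 4 h room temperature, potassium phosphate pH 7.4 buffer with molybdate, EDTA, DTT. Affinity derived from the drop in polarisation, normalised to blank wells.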

[1] = tested on: induction of TAT by dexamethasone in HepG2 cells; assay: HepG2 tyrosine aminotransferase (TAT) assay; type: cell-based, human
[2] = human recombinant GR, fluorescence polarisation binding assay, read-out: GR binding
[3] = HepG2 cells, challenge of 100 nM dexamethasone, Ki from IC50 by Cheng and Prusoff equation

SMILES	Ki (human recombinant GR; [2])	Ki [1, 3]	Ki (human recombinant GR)	Ki [1]
Cc1ccnc(C(=O)[C@]23Cc4cnn(-c5ccc(F)cc5)c4C=C2CCN(S(=O)(=O)c2ccc4c(c2)CCO4)C3)c1 [Example 11AN, (R)-(6-((2,3-dihydrobenzofuran-5-yl)sulfonyl)-1-(4-fluorophenyl)-4,4a,5,6,7,8-hexahydro-1H-pyrazolo[3,4-g]isoquinolin-4a-yl)(4-methylpyridin-2-yl)methanone]	< 0.5 nM	< 20 nM	–	–
Cc1ccnc(C(=O)[C@]23Cc4cnn(-c5ccc(F)cc5)c4C=C2CCN(S(=O)(=O)c2ccc4c(c2)CC(=O)N4C)C3)c1 [Example 11AO, (R)-5-((1-(4-fluorophenyl)-4a-(4-methylpicolinoyl)-4a,5,7,8-tetrahydro-1H-pyrazolo[3,4-g]isoquinolin-6 (4H)-yl)sulfonyl)-1-methylindolin-2-one]	< 0.5 nM	< 20 nM	–	–
Cc1ccnc(C(=O)[C@]23Cc4cnn(-c5ccc(F)cc5)c4C=C2CCN(S(=O)(=O)c2cccc(S(C)(=O)=O)c2)C3)c1 [Example 11AP, (R)-(1-(4-fluorophenyl)-6-((3-(methylsulfonyl)phenyl)sulfonyl)-4,4a,5,6,7,8-hexahydro-1H-pyrazolo[3,4-g]isoquinolin-4a-yl)(4-methylpyridin-2-yl)methanone]	< 0.5 nM	< 20 nM	–	–
Cc1ccnc(C(=O)[C@]23Cc4cnn(-c5ccc(F)cc5)c4C=C2CCN(S(=O)(=O)c2cn(C)nc2C)C3)c1 [Example 11AQ, (R)-(6-((1,3-dimethyl-1H-pyrazol-4-yl)sulfonyl)-1-(4-fluorophenyl)-4,4a,5,6,7,8-hexahydro-1H-pyrazolo[3,4-g]isoquinolin-4a-yl)(4-methylpyridin-2-yl)methanone]	< 0.5 nM	20 to 100 nM	–	–
Cc1ccnc(C(=O)[C@]23Cc4cnn(-c5ccc(F)cc5)c4C=C2CCN(S(=O)(=O)c2ccc4c(c2)OCCO4)C3)c1 [Example 11AR, (R)-(6-((2,3-dihydrobenzo[b][1,4]dioxin-6-yl)sulfonyl)-1-(4-fluorophenyl)-4,4a,5,6,7,8-hexahydro-1H-pyrazolo[3,4-g]isoquinolin-4a-yl)(4-methylpyridin-2-yl)methanone]	< 0.5 nM	< 20 nM	–	–
Cc1ccnc(C(=O)[C@]23Cc4cnn(-c5ccc(F)cc5)c4C=C2CCN(S(=O)(=O)c2ccc(C(F)(F)F)c(F)c2)C3)c1 [Example 11AS, (R)-(6-((3-fluoro-4-(trifluoromethyl)phenyl)sulfonyl)-1-(4-fluorophenyl)-4,4a,5,6,7,8-hexahydro-1H-pyrazolo[3,4-g]isoquinolin-4a-yl)(4-methylpyridin-2-yl)methanone]	< 0.5 nM	< 20 nM	–	–
O=C(c1ccccn1)[C@]12Cc3cnn(-c4ccc(F)cc4)c3C=C1CCN(S(=O)(=O)c1ccc(C(F)(F)F)c(F)c1)C2 [Example 11AT, (R)-(6-((3-fluoro-4-(trifluoromethyl)phenyl)sulfonyl)-1-(4-fluorophenyl)-4,4a,5,6,7,8-hexahydro-1H-pyrazolo[3,4-g]isoquinolin-4a-yl)(pyridin-2-yl)methanone]	–	–	< 0.5 nM	< 20 nM
CCc1ccnc(C(=O)[C@]23Cc4cnn(-c5ccc(F)cc5)c4C=C2CCN(S(=O)(=O)c2cccc(C#N)c2)C3)c1 [Example 11AU, (R)-3-((4a-(4-ethylpicolinoyl)-1-(4-fluorophenyl)-4a,5,7,8-tetrahydro-1H-pyrazolo [3,4-g]isoquinolin-6 (4H)-yl)sulfonyl)benzonitrile]	< 0.5 nM	< 20 nM	–	–
CCc1ccnc(C(=O)[C@]23Cc4cnn(-c5ccc(F)cc5)c4C=C2CCN(S(=O)(=O)c2cccc(C(F)(F)F)n2)C3)c1 [Example 11AV, (R)-(4-ethylpyridin-2-yl) (1-(4-fluorophenyl)-6-((6-(trifluoromethyl)pyridin-2-yl)sulfonyl)-4,4a,5,6,7,8-hexahydro-1H-pyrazolo [3,4-g]isoquinolin-4a-yl)methanone]	< 0.5 nM	< 20 nM	–	–
Cc1ccnc(C(=O)[C@]23Cc4cnn(-c5ccc(F)cc5)c4C=C2CCN(S(=O)(=O)c2cccc(C(=O)O)c2)C3)c1 [Example 11AW, (R)-3-((1-(4-fluorophenyl)-4a-(4-methylpicolinoyl)-4a,5,7,8-tetrahydro-1H-pyrazolo[3,4-g]isoquinolin-6 (4H)-yl)sulfonyl)benzoic acid]	< 0.5 nM	≥ 100 nM	–	–
Cc1ccnc(C(=O)[C@]23Cc4cnn(-c5ccc(F)cc5)c4C=C2CCN(S(=O)(=O)c2c(C)noc2C)C3)c1 [Example 11AX, (R)-(6-((3,5-dimethylisoxazol-4-yl)sulfonyl)-1-(4-fluorophenyl)-4,4a,5,6,7,8-hexahydro-1H-pyrazolo[3,4-g]isoquinolin-4a-yl)(4-methylpyridin-2-yl)methanone]	< 0.5 nM	20 to 100 nM	–	–
CCn1cc(S(=O)(=O)N2CCC3=Cc4c(cnn4-c4ccc(F)cc4)C[C@]3(C(=O)c3ccccn3)C2)cn1 [Example 11AY, (R)-(6-((1-ethyl-1H-pyrazol-4-yl)sulfonyl)-1-(4-fluorophenyl)-4,4a,5,6,7,8-hexahydro-1H-pyrazolo[3,4-g]isoquinolin-4a-yl)(pyridin-2-yl)methanone]	< 0.5 nM	20 to 100 nM	–	–
O=C(c1ccccn1)[C@]12Cc3cnn(-c4ccccc4)c3C=C1CCN(S(=O)(=O)c1cccc(C(F)(F)F)c1)C2 [Example 11AZ, (R)-(1-phenyl-6-((3-(trifluoromethyl)phenyl)sulfonyl)-4,4a,5,6,7,8-hexahydro-1H-pyrazolo[3,4-g]isoquinolin-4a-yl)(pyridin-2-yl)methanone]	< 0.5 nM	20 to 100 nM	–	–
COc1ccc(S(=O)(=O)N2CCC3=Cc4c(cnn4-c4ccc(F)cc4)C[C@]3(C(=O)c3ccccn3)C2)cc1C [Example 11B, (R)-(1-(4-fluorophenyl)-6-((4-methoxy-3-methylphenyl)sulfonyl)-4,4a,5,6,7,8-hexahydro-1H-pyrazolo[3,4-g]isoquinolin-4a-yl)(pyridin-2-yl)methanone]	< 0.5 nM	< 20 nM	–	–
Cc1ccnc(C(=O)[C@]23Cc4cnn(-c5ccc(F)cc5)c4C=C2CCN(S(=O)(=O)c2cc(C)nn2C)C3)c1 [Example 11BA, (R)-(6-((1,3-dimethyl-1H-pyrazol-5-yl)sulfonyl)-1-(4-fluorophenyl)-4,4a,5,6,7,8-hexahydro-1H-pyrazolo[3,4-g]isoquinolin-4a-yl)(4-methylpyridin-2-yl)methanone]	< 0.5 nM	< 20 nM	–	–
Cc1ccnc(C(=O)[C@]23Cc4cnn(-c5ccc(F)cc5)c4C=C2CCN(S(=O)(=O)c2ccnc(C(F)(F)F)c2)C3)c1 [Example 11BB, (R)-(1-(4-fluorophenyl)-6-((2-(trifluoromethyl)pyridin-4-yl)sulfonyl)-4,4a,5,6,7,8-hexahydro-1H-pyrazolo[3,4-g]isoquinolin-4a-yl)(4-methylpyridin-2-yl)methanone]	< 0.5 nM	< 20 nM	–	–
Cc1ccnc(C(=O)[C@]23Cc4cnn(-c5ccc(F)cc5)c4C=C2CCN(S(=O)(=O)c2cc(C(F)(F)F)ccn2)C3)c1 [Example 11BC, (R)-(1-(4-fluorophenyl)-6-((4-(trifluoromethyl)pyridin-2-yl)sulfonyl)-4,4a,5,6,7,8-hexahydro-1H-pyrazolo[3,4-g]isoquinolin-4a-yl)(4-methylpyridin-2-yl)methanone]	< 0.5 nM	< 20 nM	–	–
Cc1ccnc(C(=O)[C@]23Cc4cnn(-c5ccc(F)cc5)c4C=C2CCN(S(=O)(=O)c2cn[nH]c2C)C3)c1 [Example 11BD, (R)-(1-(4-fluorophenyl)-6-((5-methyl-1H-pyrazol-4-yl)sulfonyl)-4,4a,5,6,7,8-hexahydro-1H-pyrazolo[3,4-g]isoquinolin-4a-yl)(4-methylpyridin-2-yl)methanone]	< 0.5 nM	20 to 100 nM	–	–
O=C(c1ccccn1)[C@]12Cc3cnn(-c4ccc(F)cc4)c3C=C1CCN(S(=O)(=O)c1ccnc(C(F)(F)F)c1)C2 [Example 11BE, (R)-(1-(4-fluorophenyl)-6-((2-(trifluoromethyl)pyridin-4-yl)sulfonyl)-4,4a,5,6,7,8-hexahydro-1H-pyrazolo[3,4-g]isoquinolin-4a-yl)(pyridin-2-yl)methanone]	< 0.5 nM	20 to 100 nM	–	–
O=C(c1ccccn1)[C@]12Cc3cnn(-c4ccc(F)cc4)c3C=C1CCN(S(=O)(=O)c1ccc(Cl)c(C(F)(F)F)c1)C2 [Example 11BF, (R)-(6-((4-chloro-3-(trifluoromethyl)phenyl)sulfonyl)-1-(4-fluorophenyl)-4,4a,5,6,7,8-hexahydro-1H-pyrazolo[3,4-g]isoquinolin-4a-yl)(pyridin-2-yl)methanone]	< 0.5 nM	20 to 100 nM	–	–
